The values below come from PubChem BioAssay (NCI).

Assay in all cases: inhibition of tumour cell growth, NCI panel, 48 h
Assay [1] concerns EKVX NSCLC.
Assay [2] relates to SNB-19 CNS.
Assay [3] has as its system COLO 205 colon.
For assay [4], the system named is NCI-H23 lung.
Assay [5] concerns K-562 leukemia.
Assay [6] concerns LOX IMVI melanoma.
For assay [7], the system named is SR leukemia.
Assay [8] has as its system MDA-MB-231 breast.
For assay [9], the system named is SF-539 CNS.
Assay [10] has as its system MCF7 breast.

The structures appear in SMILES notation.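 Where inhibition never reached the appropriate level, the endpoint shown equals the highest concentration tested. Otherwise, values were interpolated linearly from a five-concentration, 48-hour dose response in 96-well plates. The concentration for 50% growth inhibition is given as GI50. TGI denotes the concentration required for complete inhibition of growth.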

In the case of `COc1ccc(C2C(C(=O)O)=C(COC(C)=O)Oc3cc4c(cc32)OCO4)cc1` (centres undefined), the TGI in assay [1], in assay [2], in assay [3], in assay [4], in [5] and in assay [6] was over 100 µM each time.

With `CCN(CC)C(=S)SNCCc1ccc(S(N)(=O)=O)cc1`, the TGI in assay [1] is 40 µM; in assay [7] it was over 49.4 µM; in assay [2] it was 50.9 µM; in assay [3], over 100 µM; in assay [4] it was 38.7 µM; in [5], over 100 µM. The TGI worked out at 33 µM in [6], 30.4 µM in [8] and 28.8 µM in assay [9].

Turning to `Brc1cccc(C2(CCCC3(c4cccc(Br)n4)OCCO3)OCCO2)n1`, the TGI in assay [1], in [2], in assay [10], in assay [3], in assay [4] and in assay [5] was over 100 µM throughout. Moreover, the TGI in [6], in [8] and in assay [9] was over 100 µM in each case.

`CC(=O)OCC1OC(OCC2OC(N3C(=S)N[C@H]([C@@H](O)[C@H](O)[C@H](O)CO)[C@H]3O)C(OC(C)=O)C(OC(C)=O)C2OC(C)=O)C(OC(C)=O)C(OC(C)=O)C1OC(C)=O` (some centres undefined): the TGI in assay [7], in assay [2], in assay [10], in assay [3], in assay [4] and in [5] was over 100 µM in each case. The TGI in assay [8] and in assay [9] was over 100 µM in each case.

Take `O=[N+]([O-])c1cccc2nc3ccccc3c(NCCC[N+]3([O-])CCCCC3)c12`: the TGI in assay [1] was 2.94 µM; in [2], 9.18 µM; in assay [10] it was 1.99 µM; in assay [3], 0.317 µM; in assay [4] it was 0.622 µM; in assay [5] it was over 100 µM. The TGI in assay [6] stood at 2.4 µM; in assay [8], 1.16 µM; in assay [9], 2.16 µM.

For `CC(C)(C)OC(=O)NC(CCCCNC(=O)OCc1ccccc1)C(=O)NC(CCCCNC(=O)OCc1ccccc1)C(=O)ON1C(=O)CCC1=O` (centres undefined), the TGI in assay [1], in [7], in assay [2], in assay [10], in assay [3] and in assay [4] was over 100 µM throughout. The TGI in assay [5] and in assay [8] was over 100 µM each time.

Regarding `C[C@H](CC[C@@H](O)C(C)(C)O)[C@H]1CC[C@@]2(C)[C@@H]3CC=C4[C@@H](CC[C@H](OC5OC(CO)C(O)C(O)C5O)C4(C)C)[C@]3(C)C(=O)C[C@]12C` (some centres undefined), the TGI in assay [1], in [2], in assay [10], in assay [3], in assay [4] and in assay [5] was over 100 µM each time. The TGI in [6], in [8] and in assay [9] was over 100 µM in each case.

As for `C=C(C)CC1=C(C(=S)NCCO[Si](C)(C)C(C)(C)C)C(OCC)(OCC)C1=O`, the TGI in [1] was 34.4 µM; in [2] it was 38.3 µM; in assay [10], 35.9 µM; in assay [3], 75 µM; in [4] it was 40.5 µM; in assay [6], 56.9 µM. For the same compound, the TGI turned out to be 67.5 µM in assay [8] and 37.8 µM in assay [9].

In the case of `FC1CCN(C2(c3cccs3)CCCCC2)CC1`, the TGI in assay [1], in assay [2], in [10], in assay [3], in [4] and in [5] was over 100 µM throughout. The TGI in [6] and in assay [8] was over 100 µM each time.

In the case of `CCOC(=O)N(CC)c1c(C(F)(F)F)cc(-c2ccccc2)[nH]c1=O`, the TGI is 95.1 µM in assay [1]; over 100 µM in assay [2]; over 100 µM in assay [10]; over 100 µM in [3]; over 100 µM in assay [4]; over 100 µM in assay [5]. For the same compound, the TGI in assay [6] and in assay [8] was over 100 µM each time.

On to `O=C(c1ccc(Cl)cc1)N1N=C(c2ccc(Cl)cc2)CC1(O)c1cc(F)c(Cl)cc1Cl` (centres undefined), for which the TGI in assay [1] was 59.3 µM; in [2], over 100 µM; in assay [10], over 100 µM; in assay [3], 48.8 µM; in [4], 73 µM; in [5] it was over 100 µM. Also, the TGI in assay [6] was 43.3 µM; in [8], over 100 µM; in [9], over 100 µM.

On to `N=C(N)n1[nH]c2c(c1=O)CCC2`, for which the TGI in assay [7], in assay [2], in assay [10], in assay [3], in assay [4] and in assay [5] was over 100 µM throughout. The TGI in assay [6], in [8] and in assay [9] was over 100 µM throughout.

For `CC1CCC2c3c([nH]c4ccccc34)C3C(=O)N(C4CCCCC4)C(=O)C3C2C1` (centres undefined), the TGI was 39.6 µM in assay [1]; over 100 µM in assay [7]; 32 µM in assay [2]; over 100 µM in assay [3]; 54.2 µM in assay [4]; 47.2 µM in assay [5]. The values for the TGI in assay [6], in [8] and in assay [9] were over 100 µM, 26.8 µM and 62.6 µM, respectively.

Consider `Oc1c(I)cc(I)cc1CNCCCN(Cc1ccccn1)Cc1ccccn1`, for which the GI50 is 1000 nM in [1]; 1490 nM in [2]; 1200 nM in [10]; 1650 nM in assay [3]; 1160 nM in assay [4]; 1710 nM in [5]. The figures for the GI50 in assay [6], in assay [8] and in [9] were 926 nM, 1010 nM and 863 nM, respectively. For the same compound, the TGI in assay [1] was found to be 2.38 µM; in assay [2], 5.5 µM; in [10], 3.59 µM; in [3] it was 5.99 µM; in assay [4], 3.22 µM; in [5] it was 50 µM. Moreover, the TGI stood at 1.77 µM in assay [6], 2.12 µM in [8] and 1.61 µM in assay [9].

As to `CCCCNC(=S)/N=C/c1c(O)c2ccccc2oc1=O`, the TGI in assay [1], in [2], in assay [10], in assay [3], in [4] and in [6] was over 100 µM in each case. For the same compound, the TGI in assay [8] and in assay [9] was over 100 µM each time.

Consider `COCC(=O)[C@]1(O)Cc2c(O)c3c(c(O)c2[C@@H](OC2CC(N)C(O)C(C)O2)C1)C(=O)c1c(OC)cccc1C3=O` (some centres undefined), for which the TGI in assay [1] stood at 2.9 µM; in assay [7], 0.159 µM; in assay [2], 2.45 µM; in assay [3] it was 1.63 µM; in [4], 0.256 µM; in assay [5] it was 0.785 µM. The results for the TGI in assay [6], in assay [8] and in assay [9] were 0.148 µM, 2.97 µM and 0.312 µM, respectively.

As to `C[C@]12CCC(=O)C=C1CC[C@@H]1[C@@H]2C(=O)C[C@@]2(C)[C@H]1CC[C@]2(O)C(=O)CO`, the TGI in assay [1], in assay [7], in [2], in assay [3], in [4] and in [5] was over 100 µM each time. The TGI in assay [9] is over 100 µM.

Take `ClCc1c(-c2ccccc2)nn(-c2ccccc2)c1CCl`: the TGI in [7] came out at 33.4 µM; in assay [2] it was 43 µM; in [10], 23.5 µM; in assay [3] it was 25.5 µM; in assay [4], 34.7 µM; in [9], 33.1 µM.

In the case of `CCOC(=O)/C=C(/C(=O)OCC)n1c(=O)c(C)cn(C2CC(N=[N+]=[N-])C(CO)O2)c1=O` (centres undefined), the TGI in [1] was 94 µM; in assay [2] it was over 100 µM; in assay [10] it was 50.2 µM; in assay [3], 30.1 µM; in assay [4], over 100 µM; in assay [5], over 100 µM. The TGI in [6] was over 100 µM; in [8], 46 µM; in assay [9], 47.9 µM.

Consider `[N-]=[N+]=C1CNC(=O)NC1=O`, for which the TGI in assay [1], in assay [2], in assay [10], in assay [3], in assay [4] and in assay [5] was over 100 µM in each case. In addition, the TGI in assay [6], in assay [8] and in assay [9] was over 100 µM throughout.

On to `CC(=O)c1ccc(NC(=O)/C(=N\NC(N)=O)C(C#N)CC(C)(C)C=O)cc1` (centres undefined), for which the TGI in assay [1], in [7], in assay [2], in assay [3], in assay [4] and in assay [5] was over 100 µM each time. Moreover, the TGI in [6] and in assay [9] was over 100 µM throughout.

`c1ccc(C(=NNc2nc3ccccc3[nH]2)c2ccccn2)nc1`: the TGI was 3.38 µM in assay [1]; 0.271 µM in assay [7]; over 100 µM in assay [2]; 16.1 µM in assay [3]; over 100 µM in assay [4]; over 100 µM in [5]. Moreover, the TGI was 27.8 µM in assay [6], over 53.6 µM in assay [8] and 0.546 µM in [9].

In the case of `Cc1cc(S(=O)(=O)O)ccc1N=Nc1ccc(N=Nc2c(O)ccc3ccccc23)c(C)c1`, the TGI in assay [1], in assay [2], in assay [3], in [4], in assay [5] and in assay [6] was over 100 µM each time. Moreover, the TGI in assay [8] is over 100 µM.

For the compound `O=C(c1ccc(Cl)cc1)N(C(=S)N1CCN(c2ccccn2)CC1)c1ccccc1`, the TGI in assay [7], in assay [2], in assay [3], in assay [4], in assay [5] and in [6] was over 100 µM each time. Also, the TGI in [9] is over 100 µM.

As to `Cc1cccc2c(N)c3cccc(C(=O)NCC[N+](C)(C)Cc4sc(N5CCOCC5)nc4[N+](=O)[O-])c3nc12`, the TGI was over 100 µM in assay [1]; over 100 µM in assay [2]; 13.5 µM in assay [10]; over 100 µM in assay [3]; 15.3 µM in assay [4]; over 100 µM in assay [5]. Further, the values for the TGI in assay [6], in assay [8] and in assay [9] were 3.78 µM, 13.1 µM and 10 µM, respectively.

On to `O=C1C=CC2(O[C@@H](Cc3ccccc3)[C@H](Cc3ccccc3)O2)C(SC(=O)c2ccccc2)C1` (some centres undefined), for which the TGI stood at 0.807 µM in assay [7]; 7.28 µM in [2]; 2.12 µM in assay [10]; 3.14 µM in assay [3]; 4.67 µM in assay [4]; 89.4 µM in assay [5]. For the same compound, the TGI amounted to 1.46 µM in assay [6], 6.39 µM in assay [8] and 3.04 µM in assay [9].

With `NCCCn1c2c(c3ccc([N+](=O)[O-])cc3c1=O)C(=O)c1cc3c(cc1-2)OCO3`, the GI50 in assay [7] is 22.5 nM; in [4] it was 22.8 nM; in assay [5], 58.1 nM; in assay [6], under 10 nM; in assay [8], 440 nM. The TGI was over 100 µM in assay [7], 1.14 µM in assay [4], 0.121 µM in [6] and 0.935 µM in assay [8].

`CC(O)(c1ccccc1)c1nccc2ccccc12` (centres undefined): the TGI in [2], in [10], in [3], in [4], in assay [5] and in assay [6] was over 100 µM each time. Besides, in assay [8], the TGI is over 100 µM.

`CCC(=N\NC(N)=S)/C(C)=N/O`: the TGI in assay [1], in assay [2], in assay [10], in [3], in assay [4] and in assay [5] was over 100 µM in each case. The TGI in [6], in [8] and in [9] was over 100 µM throughout.
